Laboratory results from patent publication US8524755B2 (priority 2009, dated 2013).

How the values were obtained:
[1] = target: T1, PKCα (h) (Homo sapiens, UniProt P17252); test: Enzyme assay PKCα (h); assay type: biochemical; settings: read-out: % Inhibition of Control Values @ 10 μM
T1 construct: host or cells: insect cells
From the text: The enzyme assays provided below will be familiar to those skilled in the art.
Analysis and Expression of Results: The results are expressed as a percent of control specific activity ((measured specific activity/control specific activity)×100) obtained in the presence of the test compounds.

[2] = target: T2, human androgen receptor (Homo sapiens, UniProt P10275, T878A); test: Human Androgen Receptor (AR) Binding; settings: AR Binding Activity Ki (μM)
T2 construct: The human androgen receptor was expressed in LNCAP cells; endogenous in cells; host or cells: LNCaP cells (supernatant of homogenate)
T2 sequence (P10275 1-920 T878A): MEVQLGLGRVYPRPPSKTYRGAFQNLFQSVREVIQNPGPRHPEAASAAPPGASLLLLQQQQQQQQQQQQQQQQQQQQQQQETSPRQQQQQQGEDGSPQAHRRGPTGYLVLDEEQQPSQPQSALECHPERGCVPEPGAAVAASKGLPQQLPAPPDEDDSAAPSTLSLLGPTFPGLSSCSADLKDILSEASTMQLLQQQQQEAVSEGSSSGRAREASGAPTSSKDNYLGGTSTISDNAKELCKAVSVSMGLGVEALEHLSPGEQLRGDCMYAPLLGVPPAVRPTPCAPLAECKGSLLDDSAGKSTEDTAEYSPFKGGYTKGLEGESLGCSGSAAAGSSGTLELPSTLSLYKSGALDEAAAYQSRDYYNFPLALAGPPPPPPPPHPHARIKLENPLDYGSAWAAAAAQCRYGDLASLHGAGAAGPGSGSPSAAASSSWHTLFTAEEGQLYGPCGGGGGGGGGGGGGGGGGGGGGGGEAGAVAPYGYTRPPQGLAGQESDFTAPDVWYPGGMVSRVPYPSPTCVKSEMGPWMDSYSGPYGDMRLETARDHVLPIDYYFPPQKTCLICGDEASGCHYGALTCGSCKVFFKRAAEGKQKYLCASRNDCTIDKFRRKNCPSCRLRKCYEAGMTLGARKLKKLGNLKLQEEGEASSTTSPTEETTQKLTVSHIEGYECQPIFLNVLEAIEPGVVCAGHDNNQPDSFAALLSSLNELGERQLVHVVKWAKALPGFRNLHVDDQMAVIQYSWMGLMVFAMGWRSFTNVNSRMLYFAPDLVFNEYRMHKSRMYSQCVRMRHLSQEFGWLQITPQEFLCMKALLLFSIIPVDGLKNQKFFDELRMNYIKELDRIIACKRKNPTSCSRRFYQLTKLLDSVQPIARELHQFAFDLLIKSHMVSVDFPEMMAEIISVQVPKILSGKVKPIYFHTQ
Protocol: Tissue Preparation: The human androgen receptor was expressed in LNCAP cells which were cultured and harvested by trypsinization from T-175 flasks. The frozen pellet was thawed and resuspended by sonication, then diluted to the appropriate concentration. The homogenate was centrifuged @ 48,000 g for 10 min at 4° C. The supernatant was used. The protein was determined. The tissue was diluted to 0.325 mg/mL with assay buffer so that each tube received 65 μg of protein, or the final assay concentration was 0.260 mg/mL.
Buffers: 25 mM HEPES pH7.4; 1.0 mM EDTA; 10 mM sodium molybdate; 10% Glycerol; 0.5 mM PFSM (dissolved PMSF in EtOH first, before adding to remaining buffer).
Binding Reaction: (Liao, et al. “The Use of a Hydroxylapatite-Filter Steroid Receptor Assay Method in the Study of the Modulation of Androgen Receptor Interaction.” J. Steroid Biochem. (1984), 20:11-17 (with modifications)). […] The binding reaction was initiated with the addition of tissue, and was incubated at 0-4° C. (in refrigerator) for 18-22 h (overnight). The binding reaction was terminated by rapid filtration of the tube contents onto 0.1% PEI treated GF/B filters. The assay tubes were rinsed once with ice-cold […] HEPES, then rapidly rinsed with 6×1 mL/tube of the same wash buffer. Radioactivity trapped on the filters was assessed using liquid scintillation spectrophotometry after soaking the filers for at least 1 h in scintillation cocktail. […] Specific binding was calculated from the difference between the total and non-specific binding. IC50 values were determined by plotting specific binding as a function of test-compound concentration.

[3] = target: T3, Adenosine A3 (h) (Homo sapiens, UniProt P0DMS8); test: Binding A3 (h) (ag); settings: read-out: % Inhibition of Control Specific Binding @ 10 μM
T3 construct: expressed in transfected cells; host or cells: HEK-293 cells
T3 sequence (P0DMS8 1-318): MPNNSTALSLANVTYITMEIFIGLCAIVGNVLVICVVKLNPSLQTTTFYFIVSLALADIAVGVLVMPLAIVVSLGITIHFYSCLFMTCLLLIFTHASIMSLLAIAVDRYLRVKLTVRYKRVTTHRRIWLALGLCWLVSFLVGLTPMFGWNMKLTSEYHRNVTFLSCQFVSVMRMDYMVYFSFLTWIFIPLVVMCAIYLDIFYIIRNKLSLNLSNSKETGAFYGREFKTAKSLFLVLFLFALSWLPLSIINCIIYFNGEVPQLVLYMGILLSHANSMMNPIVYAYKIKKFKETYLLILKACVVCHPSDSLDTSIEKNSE
Protocol: (§1) Radioligand binding assay methods utilized to measure the activity of compounds of the invention will be familiar to those skilled in the art. In each assay case, the assay components such as, for example, the cell-type, ligand, reference compound and the like, will be familiar to practitioners of such an assay.
(§2) Analysis and Expression of Results: Compounds of the invention were tested in the biochemical assays and percent inhibition of specific binding was determined. The specific ligand binding to the receptors is defined as the difference between the total binding and the nonspecific binding determined in the presence of an excess of unlabelled ligand. The results are expressed as a percent inhibition of control specific binding (100−((measured specific binding/control specific binding)×100)) obtained in the presence of test compounds.

[4] = target: T4, Neurokinin NK2 (h) (Homo sapiens, UniProt P21452); test: Binding NK2 (h) (ag); settings: read-out: % Inhibition of Control Specific Binding @ 10 μM
T4 construct: expressed in transfected cells; host or cells: CHO cells
T4 sequence (P21452 1-398): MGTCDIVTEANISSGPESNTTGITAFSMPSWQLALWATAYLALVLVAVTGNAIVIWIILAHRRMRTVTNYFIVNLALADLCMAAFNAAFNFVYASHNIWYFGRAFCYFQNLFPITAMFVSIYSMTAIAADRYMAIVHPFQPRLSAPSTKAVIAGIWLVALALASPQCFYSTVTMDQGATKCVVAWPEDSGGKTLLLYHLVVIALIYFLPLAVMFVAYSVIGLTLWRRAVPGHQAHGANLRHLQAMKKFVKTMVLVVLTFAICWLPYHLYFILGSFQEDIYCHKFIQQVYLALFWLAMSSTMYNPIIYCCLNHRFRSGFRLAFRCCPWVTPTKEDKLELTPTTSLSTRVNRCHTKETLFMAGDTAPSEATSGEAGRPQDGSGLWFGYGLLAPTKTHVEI
Protocol: as §1, §2

[5] = Reference Compound Methyltrienolone
[6] = first column, Reference Compound Mibolerone
[7] = second column, Reference Compound Mibolerone

Compound	inhibition at 10 µM [1] [%]	Ki [2, 5] [µM]	inhibition at 10 µM [3] [%]	inhibition at 10 µM [4] [%]	Ki [2, 6] [µM]	Ki [2, 7] [µM]
CC1(C)C(=O)N(c2ccc(C#N)c(C(F)(F)F)c2)C(=S)N1c1ccc(C(=O)O)c(F)c1 [(MI), 4-(3-(4-cyano-3-(trifluoromethyl)phenyl)-5,5-dimethyl-4-oxo-2-thioxoimidazolidin-1-yl)-2-fluorobenzoic acid]	4	> 10	69	-6	–	–
CC1(C)C(=O)N(c2ccc(C#N)c(C(F)(F)F)c2)C(=O)N1c1ccc(C(N)=O)c(F)c1 [(MIII), 4-(3-(4-cyano-3-(trifluoromethyl)phenyl)-5,5-dimethyl-2,4-dioxoimidazolidin-1-yl)-2-fluorobenzamide]	3	0.314	11	0	0.83	1.5
CNC(=O)c1ccc(N2C(=O)N(c3ccc(C#N)c(C(F)(F)F)c3)C(=O)C2(C)C)cc1F [(MIV), 4-(3-(4-cyano-3-(trifluoromethyl)phenyl)-5,5-dimethyl-2,4-dioxoimidazolidin-1-yl)-2-fluoro-N-methylbenzamide]	5	0.361	50	2	0.69	0.97
CC1(C)C(=O)N(c2ccc(C#N)c(C(F)(F)F)c2)C(=S)N1c1ccc(C(N)=O)c(F)c1 [(MII), 4-(3-(4-Cyano-3-(trifluoromethyl)phenyl)-5,5-dimethyl-4-oxo-2-thioxoimidazolidin-1-yl)-2-fluorobenzamide]	6	0.059	17	-3	0.074	0.051
